Biological target: 5-hydroxytryptamine receptor 1B (Rattus norvegicus, UniProt P28564); also: in other assays of this panel Not Active means under 50% inhibition at 10 µM
Type: cell membranes, Wistar, Cerebral cortex, Membrane
Conditions: not given

Chain of 5-hydroxytryptamine receptor 1B (P28564 whole entry): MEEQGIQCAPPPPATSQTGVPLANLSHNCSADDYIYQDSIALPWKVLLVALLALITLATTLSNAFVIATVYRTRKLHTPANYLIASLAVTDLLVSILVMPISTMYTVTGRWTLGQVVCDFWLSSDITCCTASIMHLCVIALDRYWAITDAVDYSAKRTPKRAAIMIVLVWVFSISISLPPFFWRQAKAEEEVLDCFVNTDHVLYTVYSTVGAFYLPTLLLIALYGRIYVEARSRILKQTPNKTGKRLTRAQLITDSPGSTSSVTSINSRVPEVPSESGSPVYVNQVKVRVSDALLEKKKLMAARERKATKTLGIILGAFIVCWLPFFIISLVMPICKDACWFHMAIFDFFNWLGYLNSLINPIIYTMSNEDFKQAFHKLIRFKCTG

| SMILES | IC50 | Ki |
| --- | --- | --- |
| CC(C)C(Br)C(=O)NC(N)=O (stereo unspecified) [BROMISOVALUM] | Not Active | – |
| COc1ccc(C[C@H]2NC[C@H](O)[C@H]2OC(C)=O)cc1 [ANISOMYCIN] | Not Active | Not Active |
| C[C@]12CCC(=O)C=C1CC[C@@H]1[C@@H]2CC[C@@]2(C)[C@H]1CC[C@]2(C)O [METHYLTESTOSTERONE] | Not Active | – |
| O=C1CC[C@@H](N2C(=O)c3ccccc3C2=O)C(=O)N1 | Not Active | – |
| Cc1c(O)c(=O)ccn1C [DEFERIPRONE] | Not Active | – |
| CCOc1ccc(NC(C)=O)cc1 [PHENACETIN] | Not Active | – |
| C[C@]12CC[C@@H]3c4ccc(O)cc4CC[C@H]3[C@@H]1CCC2=O [ESTRONE] | Not Active | – |
| NC1=NC(=O)C(c2ccccc2)O1 (stereo unspecified) [PEMOLINE] | Not Active | – |
| CN(C)c1nc(N(C)C)nc(N(C)C)n1 [ALTRETAMINE] | Not Active | – |
| CCn1cc(C(=O)O)c(=O)c2cc(F)c(N3CCNCC3)cc21 [NORFLOXACIN] | Not Active | – |

Same assay, conditions: read-out: IC50

| SMILES | IC50 [µM] |
| --- | --- |
| CCCN1C[C@H](CSC)C[C@@H]2c3cccc4[nH]cc(c34)C[C@H]21 [PERGOLIDE] | 0.087 |
| CN(C)CCCN1c2ccccc2Sc2ccc(Cl)cc21 [CHLORPROMAZINE] | 4.04 |

Same assay, conditions: read-out: Ki

| SMILES | Ki [µM] |
| --- | --- |
| CCCN1C[C@H](CSC)C[C@@H]2c3cccc4[nH]cc(c34)C[C@H]21 [PERGOLIDE] | 0.04 |
| CN(C)CCCN1c2ccccc2Sc2ccc(Cl)cc21 [CHLORPROMAZINE] | 1.84 |

Biological target: T1, Progesterone receptor (Bos taurus, UniProt Q690N0)
T1 sequence (Q690N0 whole entry): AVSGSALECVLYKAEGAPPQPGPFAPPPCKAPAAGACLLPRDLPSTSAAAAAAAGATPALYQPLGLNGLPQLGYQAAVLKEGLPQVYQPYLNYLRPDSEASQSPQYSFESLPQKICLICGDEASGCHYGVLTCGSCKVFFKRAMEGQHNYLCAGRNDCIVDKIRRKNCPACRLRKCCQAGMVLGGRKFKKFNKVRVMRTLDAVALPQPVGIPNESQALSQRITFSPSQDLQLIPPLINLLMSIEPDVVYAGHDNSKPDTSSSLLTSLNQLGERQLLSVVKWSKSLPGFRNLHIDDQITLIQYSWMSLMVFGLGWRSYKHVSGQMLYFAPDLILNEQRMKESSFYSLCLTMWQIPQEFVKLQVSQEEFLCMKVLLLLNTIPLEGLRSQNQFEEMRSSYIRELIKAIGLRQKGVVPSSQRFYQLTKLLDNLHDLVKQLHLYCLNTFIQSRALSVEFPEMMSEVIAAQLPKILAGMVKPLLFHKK
Test: DRUGMATRIX: Progesterone radioligand binding (ligand: [3H] R-5020)
Type: tissue-based, Uterus
Conditions: Not Active = under 50% inhibition at 10 µM

| SMILES | IC50 | Ki |
| --- | --- | --- |
| CC(C)C(Br)C(=O)NC(N)=O (stereo unspecified) [BROMISOVALUM] | Not Active | – |
| COc1ccc(C[C@H]2NC[C@H](O)[C@H]2OC(C)=O)cc1 [ANISOMYCIN] | Not Active | Not Active |
| O=C1CC[C@@H](N2C(=O)c3ccccc3C2=O)C(=O)N1 | Not Active | – |
| Cc1c(O)c(=O)ccn1C [DEFERIPRONE] | Not Active | – |
| CCOc1ccc(NC(C)=O)cc1 [PHENACETIN] | Not Active | – |
| NC1=NC(=O)C(c2ccccc2)O1 (stereo unspecified) [PEMOLINE] | Not Active | – |
| CCn1cc(C(=O)O)c(=O)c2cc(F)c(N3CCNCC3)cc21 [NORFLOXACIN] | Not Active | – |
| CCCN1C[C@H](CSC)C[C@@H]2c3cccc4[nH]cc(c34)C[C@H]21 [PERGOLIDE] | Not Active | – |
| CN(C)CCCN1c2ccccc2Sc2ccc(Cl)cc21 [CHLORPROMAZINE] | Not Active | – |

Same assay, conditions: Not Active = under 50% inhibition at 10 µM; read-out: IC50

| SMILES | IC50 [µM] |
| --- | --- |
| C[C@]12CCC(=O)C=C1CC[C@@H]1[C@@H]2CC[C@@]2(C)[C@H]1CC[C@]2(C)O [METHYLTESTOSTERONE] | 0.251 |
| C[C@]12CC[C@@H]3c4ccc(O)cc4CC[C@H]3[C@@H]1CCC2=O [ESTRONE] | 16.1 |

Same assay, conditions: Not Active = under 50% inhibition at 10 µM; read-out: Ki

| SMILES | Ki [µM] |
| --- | --- |
| C[C@]12CCC(=O)C=C1CC[C@@H]1[C@@H]2CC[C@@]2(C)[C@H]1CC[C@]2(C)O [METHYLTESTOSTERONE] | 0.033 |
| C[C@]12CC[C@@H]3c4ccc(O)cc4CC[C@H]3[C@@H]1CCC2=O [ESTRONE] | 2.1 |

Biological target: Melanocortin receptor 3 (Homo sapiens, UniProt P41968); also: in other assays of this panel Not Active means under 50% inhibition at 10 µM
Sequence (P41968 whole entry): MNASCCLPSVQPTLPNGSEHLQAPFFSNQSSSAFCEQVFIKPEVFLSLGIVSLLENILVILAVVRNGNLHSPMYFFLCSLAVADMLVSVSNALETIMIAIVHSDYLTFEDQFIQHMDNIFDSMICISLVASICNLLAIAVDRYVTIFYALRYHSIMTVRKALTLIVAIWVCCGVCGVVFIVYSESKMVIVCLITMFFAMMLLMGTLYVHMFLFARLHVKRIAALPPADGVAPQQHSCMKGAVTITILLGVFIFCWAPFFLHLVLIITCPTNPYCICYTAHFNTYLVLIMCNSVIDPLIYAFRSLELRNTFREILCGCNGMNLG
Type: cell membranes, HEK293, Membrane
Conditions: hek293

| SMILES | IC50 | Ki |
| --- | --- | --- |
| CC(C)C(Br)C(=O)NC(N)=O (stereo unspecified) [BROMISOVALUM] | Not Active | – |
| COc1ccc(C[C@H]2NC[C@H](O)[C@H]2OC(C)=O)cc1 [ANISOMYCIN] | Not Active | Not Active |
| C[C@]12CCC(=O)C=C1CC[C@@H]1[C@@H]2CC[C@@]2(C)[C@H]1CC[C@]2(C)O [METHYLTESTOSTERONE] | Not Active | – |
| O=C1CC[C@@H](N2C(=O)c3ccccc3C2=O)C(=O)N1 | Not Active | – |
| Cc1c(O)c(=O)ccn1C [DEFERIPRONE] | Not Active | – |
| CCOc1ccc(NC(C)=O)cc1 [PHENACETIN] | Not Active | – |
| C[C@]12CC[C@@H]3c4ccc(O)cc4CC[C@H]3[C@@H]1CCC2=O [ESTRONE] | Not Active | – |
| NC1=NC(=O)C(c2ccccc2)O1 (stereo unspecified) [PEMOLINE] | Not Active | – |
| CN(C)c1nc(N(C)C)nc(N(C)C)n1 [ALTRETAMINE] | Not Active | – |
| CCn1cc(C(=O)O)c(=O)c2cc(F)c(N3CCNCC3)cc21 [NORFLOXACIN] | Not Active | – |
| CCCN1C[C@H](CSC)C[C@@H]2c3cccc4[nH]cc(c34)C[C@H]21 [PERGOLIDE] | Not Active | – |

Biological target: T2, Type-2 angiotensin II receptor (Homo sapiens, UniProt P50052); also: in other assays of this panel Not Active means under 50% inhibition at 10 µM
T2 sequence (P50052 whole entry): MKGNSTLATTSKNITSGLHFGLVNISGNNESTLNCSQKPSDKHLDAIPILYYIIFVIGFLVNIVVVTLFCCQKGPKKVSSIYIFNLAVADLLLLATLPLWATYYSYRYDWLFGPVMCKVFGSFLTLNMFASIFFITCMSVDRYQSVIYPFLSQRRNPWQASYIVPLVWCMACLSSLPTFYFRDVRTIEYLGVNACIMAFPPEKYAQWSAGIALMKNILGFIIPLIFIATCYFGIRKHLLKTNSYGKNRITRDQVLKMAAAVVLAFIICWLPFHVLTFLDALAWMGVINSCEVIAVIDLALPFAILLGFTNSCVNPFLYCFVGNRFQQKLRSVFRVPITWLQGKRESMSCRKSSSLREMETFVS
Type: cell-based
Conditions: cho-k1

| SMILES | IC50 | Ki |
| --- | --- | --- |
| CC(C)C(Br)C(=O)NC(N)=O (stereo unspecified) [BROMISOVALUM] | Not Active | – |
| COc1ccc(C[C@H]2NC[C@H](O)[C@H]2OC(C)=O)cc1 [ANISOMYCIN] | Not Active | Not Active |
| C[C@]12CCC(=O)C=C1CC[C@@H]1[C@@H]2CC[C@@]2(C)[C@H]1CC[C@]2(C)O [METHYLTESTOSTERONE] | Not Active | – |
| O=C1CC[C@@H](N2C(=O)c3ccccc3C2=O)C(=O)N1 | Not Active | – |
| Cc1c(O)c(=O)ccn1C [DEFERIPRONE] | Not Active | – |
| CCOc1ccc(NC(C)=O)cc1 [PHENACETIN] | Not Active | – |
| C[C@]12CC[C@@H]3c4ccc(O)cc4CC[C@H]3[C@@H]1CCC2=O [ESTRONE] | Not Active | – |
| NC1=NC(=O)C(c2ccccc2)O1 (stereo unspecified) [PEMOLINE] | Not Active | – |
| CN(C)c1nc(N(C)C)nc(N(C)C)n1 [ALTRETAMINE] | Not Active | – |
| CCn1cc(C(=O)O)c(=O)c2cc(F)c(N3CCNCC3)cc21 [NORFLOXACIN] | Not Active | – |
| CCCN1C[C@H](CSC)C[C@@H]2c3cccc4[nH]cc(c34)C[C@H]21 [PERGOLIDE] | Not Active | – |
| CN(C)CCCN1c2ccccc2Sc2ccc(Cl)cc21 [CHLORPROMAZINE] | Not Active | – |

Biological target: Epidermal growth factor receptor (Homo sapiens, UniProt P00533)
Sequence (P00533 whole entry): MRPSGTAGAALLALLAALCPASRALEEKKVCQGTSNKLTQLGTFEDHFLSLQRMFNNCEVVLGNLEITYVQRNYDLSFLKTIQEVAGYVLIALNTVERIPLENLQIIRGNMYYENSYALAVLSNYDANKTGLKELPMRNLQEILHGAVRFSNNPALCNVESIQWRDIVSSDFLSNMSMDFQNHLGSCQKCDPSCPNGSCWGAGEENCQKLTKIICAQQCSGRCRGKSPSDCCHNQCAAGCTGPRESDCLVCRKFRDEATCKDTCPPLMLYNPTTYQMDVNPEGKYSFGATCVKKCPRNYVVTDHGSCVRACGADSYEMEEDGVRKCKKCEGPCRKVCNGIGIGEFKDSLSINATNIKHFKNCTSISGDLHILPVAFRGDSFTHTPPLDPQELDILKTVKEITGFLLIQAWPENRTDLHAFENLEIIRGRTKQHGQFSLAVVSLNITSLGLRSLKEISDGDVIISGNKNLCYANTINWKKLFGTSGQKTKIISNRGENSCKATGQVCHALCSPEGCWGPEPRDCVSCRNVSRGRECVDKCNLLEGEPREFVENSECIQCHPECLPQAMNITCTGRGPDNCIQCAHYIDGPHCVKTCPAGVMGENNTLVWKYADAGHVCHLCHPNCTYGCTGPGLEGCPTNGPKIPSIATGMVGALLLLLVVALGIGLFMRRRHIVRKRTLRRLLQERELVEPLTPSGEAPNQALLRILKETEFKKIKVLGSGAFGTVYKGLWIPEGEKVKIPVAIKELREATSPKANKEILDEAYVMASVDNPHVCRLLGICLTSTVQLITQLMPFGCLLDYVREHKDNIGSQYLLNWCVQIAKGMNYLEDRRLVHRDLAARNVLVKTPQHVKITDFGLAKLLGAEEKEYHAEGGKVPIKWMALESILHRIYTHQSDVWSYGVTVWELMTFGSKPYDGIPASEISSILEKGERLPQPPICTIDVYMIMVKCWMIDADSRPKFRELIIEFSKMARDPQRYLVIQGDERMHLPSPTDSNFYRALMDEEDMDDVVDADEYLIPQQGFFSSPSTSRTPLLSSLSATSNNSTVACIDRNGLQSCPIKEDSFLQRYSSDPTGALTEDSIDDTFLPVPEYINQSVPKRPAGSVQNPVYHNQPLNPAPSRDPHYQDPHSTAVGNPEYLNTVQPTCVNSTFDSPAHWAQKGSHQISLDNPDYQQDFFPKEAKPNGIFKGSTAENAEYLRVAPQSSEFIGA
Test: DRUGMATRIX: Protein Tyrosine Kinase, EGF Receptor enzyme inhibition (substrate: Poly(Glu:Tyr))
Type: cell-based, Insect cells
Conditions: Not Active = under 50% inhibition at 10 µM; read-out: IC50

| SMILES | IC50 [µM] |
| --- | --- |
| CN(C)CCCN1c2ccccc2Sc2ccc(Cl)cc21 [CHLORPROMAZINE] | 28.9 |

Same assay, conditions: insect cells; Not Active = under 50% inhibition at 10 µM

| SMILES | IC50 | Ki |
| --- | --- | --- |
| CC(C)C(Br)C(=O)NC(N)=O (stereo unspecified) [BROMISOVALUM] | Not Active | – |
| COc1ccc(C[C@H]2NC[C@H](O)[C@H]2OC(C)=O)cc1 [ANISOMYCIN] | Not Active | Not Active |
| C[C@]12CCC(=O)C=C1CC[C@@H]1[C@@H]2CC[C@@]2(C)[C@H]1CC[C@]2(C)O [METHYLTESTOSTERONE] | Not Active | – |
| O=C1CC[C@@H](N2C(=O)c3ccccc3C2=O)C(=O)N1 | Not Active | – |
| Cc1c(O)c(=O)ccn1C [DEFERIPRONE] | Not Active | – |
| CCOc1ccc(NC(C)=O)cc1 [PHENACETIN] | Not Active | – |
| C[C@]12CC[C@@H]3c4ccc(O)cc4CC[C@H]3[C@@H]1CCC2=O [ESTRONE] | Not Active | – |
| NC1=NC(=O)C(c2ccccc2)O1 (stereo unspecified) [PEMOLINE] | Not Active | – |
| CN(C)c1nc(N(C)C)nc(N(C)C)n1 [ALTRETAMINE] | Not Active | – |
| CCn1cc(C(=O)O)c(=O)c2cc(F)c(N3CCNCC3)cc21 [NORFLOXACIN] | Not Active | – |
| CCCN1C[C@H](CSC)C[C@@H]2c3cccc4[nH]cc(c34)C[C@H]21 [PERGOLIDE] | Not Active | – |

System: not listed separately
Test: DRUGMATRIX: Calcium Channel Type L, Phenylalkylamine radioligand binding (ligand: [3H] (-)-Desmethoxyverapamil (D-888))
Type: cell membranes, Rattus norvegicus, Wistar, Brain, Membrane
Conditions: Not Active = under 50% inhibition at 10 µM

| SMILES | IC50 | Ki |
| --- | --- | --- |
| CC(C)C(Br)C(=O)NC(N)=O (stereo unspecified) [BROMISOVALUM] | Not Active | Not Active |
| COc1ccc(C[C@H]2NC[C@H](O)[C@H]2OC(C)=O)cc1 [ANISOMYCIN] | Not Active | Not Active |
| C[C@]12CCC(=O)C=C1CC[C@@H]1[C@@H]2CC[C@@]2(C)[C@H]1CC[C@]2(C)O [METHYLTESTOSTERONE] | Not Active | Not Active |
| O=C1CC[C@@H](N2C(=O)c3ccccc3C2=O)C(=O)N1 | Not Active | Not Active |
| Cc1c(O)c(=O)ccn1C [DEFERIPRONE] | Not Active | Not Active |
| CCOc1ccc(NC(C)=O)cc1 [PHENACETIN] | Not Active | Not Active |
| C[C@]12CC[C@@H]3c4ccc(O)cc4CC[C@H]3[C@@H]1CCC2=O [ESTRONE] | Not Active | Not Active |
| NC1=NC(=O)C(c2ccccc2)O1 (stereo unspecified) [PEMOLINE] | Not Active | Not Active |
| CN(C)c1nc(N(C)C)nc(N(C)C)n1 [ALTRETAMINE] | Not Active | Not Active |
| CCn1cc(C(=O)O)c(=O)c2cc(F)c(N3CCNCC3)cc21 [NORFLOXACIN] | Not Active | Not Active |

Same assay, conditions: Not Active = under 50% inhibition at 10 µM; read-out: IC50

| SMILES | IC50 [µM] |
| --- | --- |
| CCCN1C[C@H](CSC)C[C@@H]2c3cccc4[nH]cc(c34)C[C@H]21 [PERGOLIDE] | 0.913 |
| CN(C)CCCN1c2ccccc2Sc2ccc(Cl)cc21 [CHLORPROMAZINE] | 1.53 |

Same assay, conditions: Not Active = under 50% inhibition at 10 µM; read-out: Ki

| SMILES | Ki [µM] |
| --- | --- |
| CCCN1C[C@H](CSC)C[C@@H]2c3cccc4[nH]cc(c34)C[C@H]21 [PERGOLIDE] | 0.887 |
| CN(C)CCCN1c2ccccc2Sc2ccc(Cl)cc21 [CHLORPROMAZINE] | 1.49 |

From ChEMBL document CHEMBL1909046, “DrugMatrix in vitro pharmacology data”
